From US5189038A, “Method of stimulating superoxide generation” (G. D. Searle and Co., priority 1991, dated 1993)
Values joined by “and” are separate entries in the source; they are usually repeats but may differ in a detail not shown here. Equal values may be shown once. Where a name gives a salt, the structure may show the parent alone.

How the values were obtained:
[1] = molecular target: T1, 5-lipoxygenase (Rattus norvegicus, UniProt P12527); experiment: Inhibition of 5-lipoxygenase, in vitro (5-HETE synthesis by RBL-1 100,000×g supernatant); format: biochemical; conditions: for IC50: RBL-1 homogenate supernatant, 5-HETE synthesis
T1 construct: supernatant fraction of Rat Basophilic Leukemia Cell Homogenate (RBL-1) serves as a 5-lipoxygenase enzyme source; endogenous in cells; host or cells: RBL-1 (rat basophilic leukemia) cells, 100,000×g supernatant of homogenate
T1 sequence (P12527 1-673): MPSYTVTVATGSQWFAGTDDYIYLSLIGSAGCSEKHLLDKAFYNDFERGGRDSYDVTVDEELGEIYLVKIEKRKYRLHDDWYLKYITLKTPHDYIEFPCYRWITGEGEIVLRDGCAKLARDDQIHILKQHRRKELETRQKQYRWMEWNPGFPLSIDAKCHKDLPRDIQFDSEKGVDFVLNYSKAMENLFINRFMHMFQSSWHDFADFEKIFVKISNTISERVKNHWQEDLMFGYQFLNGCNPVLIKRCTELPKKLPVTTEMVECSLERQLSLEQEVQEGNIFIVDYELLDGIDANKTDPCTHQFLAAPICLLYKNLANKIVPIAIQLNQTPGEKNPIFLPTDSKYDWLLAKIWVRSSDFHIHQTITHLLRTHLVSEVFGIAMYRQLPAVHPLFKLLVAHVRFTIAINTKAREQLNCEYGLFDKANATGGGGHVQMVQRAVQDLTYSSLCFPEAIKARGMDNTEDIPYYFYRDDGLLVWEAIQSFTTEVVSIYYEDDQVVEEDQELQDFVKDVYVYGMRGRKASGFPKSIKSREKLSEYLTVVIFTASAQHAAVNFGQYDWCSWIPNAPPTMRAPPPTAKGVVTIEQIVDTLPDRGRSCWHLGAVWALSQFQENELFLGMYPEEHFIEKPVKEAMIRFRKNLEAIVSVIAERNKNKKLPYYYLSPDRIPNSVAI
Experimental: The compounds of the invention are evaluated with respect to 5-lipoxygenaseinhibition according to the following assay procedure.
Inhibition of 5-lipoxygenase, in vitro:
anti-inflammatory, anti-allergy activities.
The 100,000×g supernatant fraction of Rat Basophilic Leukemia Cell Homogenate (RBL-1) serves as a 5-lipoxygenase enzyme source. The enzyme is incubated with [1-^14 C)-arachidonic acid and Ca++ in the presence and absence of test compound. The product of 5-lipoxygenase, 5-hydroxyeicosatetraenoic acid (5-HETE), is separated by thin-layer chromatography and measured by radioactivity. A compound inhibiting 5-HETE synthesis by 30% or more is considered active at that concentration.

[2] = tested on: FMLP-stimulated human neutrophils (superoxide generation); experiment: Human neutrophil superoxide generation (FMLP-stimulated, cytochrome C reduction); format: cell-based; conditions: for Stimulation of FMLP Induced Superoxide: concentrations at which compound stimulates: "Stimulates at" concentration range; for activation at 5 µM / activation at 10 µM: read-out: Stimulation of FMLP Induced Superoxide, above control
Experimental: The compounds of the invention are evaluated with respect to superoxide modulating activity according to the following assay procedure:
Human neutrophil superoxide generation: Superoxide generation by formyl-methionyl-leucyl-phenylalanine (FMLP)-stimulated neutrophils was quantitated by the reduction of cytochrome C (Badwey, J. A., Curnutte, J. T. and Karnovsky, M. L., cis-Polyunsaturated fatty acids induce high levels of superoxide production by human neutrophils. J. Biol. Chem. 256: 12640-12643, 1981.) To 5 million neutrophils in 2.85 ml of KrebsRinger phosphate buffer, pH 7.2, 50 ul of inhibitor (in 10% DMSO/buffer), and 50 ul ferricytochrome C (5 mM, stock) were added and preincubated for 3 minutes at 37° C. Absorption measurements at 550 nm were recorded at start of preincubation. Fifty ul FMLP (6 uM, stock) was added to initiate reaction. A plateau was reached within 3 minutes and this reading--initial reading (before addition of FMLP) was used to calculate nanomoles of superoxide generated based on a molar extinction coefficient of 2.1×10^4 cm^-1 mole^-1.
Isolation of human neutrophils: Human neutrophils were isolated from freshly drawn blood of healthy donors. Two ml of 5% dextran (MW 200,000-300,000) in saline was added to 10 ml aliquots of blood, mixed and placed upright for 45 min. at 37° C. Approx. 8-10 ml of the plasma-white cell suspension from the dextran sedimentation was layered on 3 ml of Ficol-paque in a 15 ml tube and centrifuged at 400 g for 30 min. The supernate, containing plasma and platelets, was discarded by aspiration, and the pellet, containing predominantly neutrophils, was resuspended in 1 ml saline. The suspension was transferred to a clean tube, and pooled with other aliquots of blood treated similarly. The pooled suspension was centrifuged at 350 g for 5 min. and supernate discarded. The pellet was resuspended in 5 ml of 0.05% NaCl with a plastic Pasteur pipette for 25 seconds to lyse contaminating red cells, then 5 ml of 1.75% NaCl added to regain isotonicity. The red cell lysing procedure was repeated, the cells suspended in appropriate buffer (depending on assay) and counted.
For comparison the compound of Formula IV, a known 5-lipoxygenase inhibitor described in U.S. Pat. No. 4,755,524 was used. [drawing 20] (±)[2S*-[[3.5-bis(1,1-dimethylethyl)-4-hydroxyphenyl]thio]-1R*-methylpro poxy]acetic acid

| Structure (SMILES) | IC50 [1] | Stimulation of FMLP Induced Superoxide: concentrations at which compound stimulates [2] | activation at 5 µM ([2]; Homo sapiens, Neutrophil) | activation at 10 µM ([2]; Homo sapiens, Neutrophil) | also measured |
| --- | --- | --- | --- | --- | --- |
| Cc1cccc(C)c1NC(=O)CCSc1cc(C(C)(C)C)c(O)c(C(C)(C)C)c1 [Example 7, 3-[[3,5-bis(1,1-dimethylethyl)-4-hydroxyphenyl]thio]-N-(2,6-dimethylphenyl)propanamide] | 230 nM and 330 nM | 3 to 20 µM |  |  |  |
| CN(CCc1ccccn1)C(=O)CCSc1cc(C(C)(C)C)c(O)c(C(C)(C)C)c1 [Example 5, 3-[[3,5-bis(1,1-dimethylethyl)-4-hydroxyphenyl]thio]-N-methyl-N-[2-(2-pyridinyl)ethyl]propanamide monohydrochloride] |  |  | 50% | 227% |  |
| C[C@H](Sc1cc(C(C)(C)C)c(O)c(C(C)(C)C)c1)[C@@H](C)OCC(=O)O (relative stereo) [Formula IV, (±)[2S*-[[3.5-bis(1,1-dimethylethyl)-4-hydroxyphenyl]thio]-1R*-methylpropoxy]acetic acid, reference compound] |  |  |  |  | Effect on 5-lipoxygenase (in words) [1]: inhibited both superoxide generation and 5-lipoxygenase; IC50 ([2]; Homo sapiens, Neutrophil, inhibition of FMLP induced superoxide, read-out: Inhibited superoxide generation, IC50): 11 µM; Effect on superoxide generation (in words) ([2]; neutrophils): inhibited both superoxide generation and 5-lipoxygenase |
| CC(C)(C)c1cc(SCCC(=O)N2CCN(Cc3ccccc3)CC2)cc(C(C)(C)C)c1O [Example 8, 1-[3-[[3,5-Bis(1,1-dimethylethyl)4-hydroxyphenyl]thio]-1-oxopropyl]-4-(phenylmethyl)piperazine] | 160 nM |  | 150% | 206% |  |

More lines, main results first:

| IC50 [1] | Structure (SMILES) | Stimulation of FMLP Induced Superoxide: concentrations at which compound stimulates [2] | activation at 5 µM ([2]; Homo sapiens, Neutrophil) | activation at 10 µM ([2]; Homo sapiens, Neutrophil) | also measured |
| --- | --- | --- | --- | --- | --- |
| 260 nM | CC(C)C(O)CCSc1cc(C(C)(C)C)c(O)c(C(C)(C)C)c1 (centres unmarked) [Example 9, 2,6-bis(1,1-dimethylethyl)-4-[(3-hydroxy-4-methylpentyl)thio]phenol] | 5 to 50 µM |  |  |  |
| 790 nM | CC(C)C(C)(O)CCSc1cc(C(C)(C)C)c(O)c(C(C)(C)C)c1 (centres unmarked) [Example 10, 2,6-bis(1,1-dimethylethyl)-4-[(3-hydroxy-3,4-dimethylpentyl)thio]phenol] | 5 to 50 µM |  |  |  |
